In patent US11414429B2, “Compound or pharmaceutically acceptable salt thereof” (RIKEN, priority 2016, dated 2022):

How the values were obtained:
tankyrase 2 (TNKS 2) = target: T1, tankyrase 2 (TNKS 2) (Homo sapiens, UniProt Q9H2K2); test: Tankyrase inhibitory activity test (ELISA, self-polyADP ribosylation), tankyrase 2; assay type: biochemical; settings: ELISA, self-polyADP ribosylation; class symbols; read-out: TNKS2 (inhibitory activity against tankyrase 2, IC50 value)
T1 construct: 613-1, 116aa; made in house; host or cells: cell-free protein synthesis system
Summary of the method: (§1)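 IC50 was fitted to residual self-polyADP-ribosylation activity, detected by HRP-streptavidin chemiluminescence. Plate-bound Flag fusions (TNKS1 1,024-1,327aa SAM+PARP; TNKS2 613-1,116aa ANK5+SAM+PARP, cell-free synthesized) saw compound for 10 min at room temperature in 50 mM Tris-HCl pH 8.0, 4 mM MgCl2, 0.2 mM DTT. Reaction with 225 μM NAD/25 μM 6-biotin-17-NAD solution ran 45 min at 30 °C.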

[1] = system: human colorectal cancer cell line, COLO-320DM; test: Cell proliferation inhibitory activity test (Celltiter-Glo Luminescent Cell Viability Assay); assay type: cell-based; settings: COLO-320DM cells, 96 hours, class symbols, read-out: COLO-320 DM (cell proliferation inhibitory activity, GI50 value)
Summary of the method: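 GI50 is taken as the concentration halving cell growth versus 1% DMSO control, measured by ATP luminescence. Compound exposure lasted 96 h at 37° C. under 5% CO2, after overnight seeding in RPMI-1640 with 10% FBS and 2 mM glutamine.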

tankyrase 1 (TNKS 1) = target: T2, tankyrase 1 (TNKS 1) (Homo sapiens, UniProt O95271); test: Tankyrase inhibitory activity test (ELISA, self-polyADP ribosylation), tankyrase 1; assay type: biochemical; settings: ELISA, self-polyADP ribosylation; class symbols; read-out: TNKS1 (inhibitory activity against tankyrase 1, IC50 value)
T2 construct: 1,024-1,327aa; made in house; host or cells: cell-free protein synthesis system
Summary of the method: as §1

T2 sequence (O95271 1024-1327): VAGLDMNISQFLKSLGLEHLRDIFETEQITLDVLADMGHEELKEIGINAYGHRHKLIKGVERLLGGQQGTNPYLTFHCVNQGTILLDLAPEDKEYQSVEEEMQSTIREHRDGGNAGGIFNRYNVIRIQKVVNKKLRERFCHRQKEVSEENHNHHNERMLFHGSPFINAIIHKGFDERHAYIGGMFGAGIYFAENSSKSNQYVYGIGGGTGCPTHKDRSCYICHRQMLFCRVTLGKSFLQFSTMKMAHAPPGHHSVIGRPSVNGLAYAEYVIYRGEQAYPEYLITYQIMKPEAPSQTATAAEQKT
T1 sequence (Q9H2K2 613-1166): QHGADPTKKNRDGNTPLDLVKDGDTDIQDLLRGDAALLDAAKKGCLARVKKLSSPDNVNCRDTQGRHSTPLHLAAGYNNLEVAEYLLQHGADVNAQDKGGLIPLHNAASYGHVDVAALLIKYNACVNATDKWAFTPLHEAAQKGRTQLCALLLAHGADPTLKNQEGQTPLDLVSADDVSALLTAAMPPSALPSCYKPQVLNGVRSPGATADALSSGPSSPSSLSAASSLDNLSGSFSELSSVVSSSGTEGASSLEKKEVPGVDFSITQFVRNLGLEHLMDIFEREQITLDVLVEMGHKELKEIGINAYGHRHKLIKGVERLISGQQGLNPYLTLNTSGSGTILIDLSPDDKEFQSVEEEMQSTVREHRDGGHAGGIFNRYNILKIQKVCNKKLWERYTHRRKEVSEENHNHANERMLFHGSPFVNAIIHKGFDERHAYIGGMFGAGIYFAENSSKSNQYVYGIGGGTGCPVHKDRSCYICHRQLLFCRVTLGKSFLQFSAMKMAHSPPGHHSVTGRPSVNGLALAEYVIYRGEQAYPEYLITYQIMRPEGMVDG

SMILES | IC50 (tankyrase 2 (TNKS 2)) [nM] | GI50 [1] [nM] | IC50 (tankyrase 1 (TNKS 1)) [nM]
CN1CCCc2c1nc(N1CCC3(CC1)C(=O)N(C)c1cc(N4CCN(C(N)=O)CC4)cc(F)c13)[nH]c2=O [Example 466, 4-[4-fluoro-1-methyl-1′-(8-methyl-4-oxo-3,4,5,6,7,8-hexahydropyrido[2,3-d]pyrimidin-2-yl)-2-oxospiro[indole-3,4′-piperidine]-6-yl]piperazine-1-carboxamide] | < 20 | 600 to 1000 | 20 to 200
CN1CCCc2c1nc(N1CCC3(CC1)C(=O)N(C)c1cc(N4CCC(C#N)CC4)cc(F)c13)[nH]c2=O [Example 467, 1-[4-fluoro-1-methyl-1′-(8-methyl-4-oxo-3,4,5,6,7,8-hexahydropyrido[2,3-]pyrimidin-2-yl)-2-oxospiro[indole-3,4′-piperidine]-6-yl]piperidine-4-carbonitrile] | < 20 | < 100 | 20 to 200
O=C1N(CC2CCCO2)c2cccc(F)c2C12CCN(c1nc3c(c(=O)[nH]1)CCCN3)CC2 (stereo not drawn) [Example 469, 4-fluoro-1′-(4-hydroxy-5,6,7,8-tetrahydroypyrido[2,3-d]pyrimidin-2-yl)-1-(oxolan-2-ylmethyl)spiro[indole-3,4′-piperidine]-2-one] | < 20 | 100 to 600 | 20 to 200
COCCN1C(=O)C2(CCN(c3nc4c(c(=O)[nH]3)CCCN4)CC2)c2c(F)cccc21 [Example 470, 4-fluoro-1′-(4-hydroxy-5,6,7,8-tetrahydroxypyrido[2,3-d]pyrimidin-2-yl)-1-(2-methoxyethyl)spiro[indole-3,4′-piperidin]-2-one] | < 20 | 100 to 600 | < 20
O=C1OC2(CCN(c3nc4c(c(=O)[nH]3)CCCN4)CC2)c2c(F)cc(N3CCOCC3)cc21 [Example 471, 7-fluoro-1′-(4-hydroxy-6,7-dihydro-5H-pyrido[2,3-d]pyrimidin-2-yl)-6-morpholino-4-ylspiro[2-benzofuran-3,4′-piperidin]-1-one] | < 20 | 600 to 1000 | < 20
CC1CN(c2cc(F)c3c(c2)C(=O)OC32CCN(c3nc4c(c(=O)[nH]3)CCCN4)CC2)CC(C)O1 (stereo not drawn) [Example 472, 6-(2,6-dimethylmorpholin-4-yl)-4-fluoro-1′-(4-hydroxy-5,6,7,8-tetrahydropyrido[2,3-d]pyrimidin-2-yl) spiro[2-benzofuran-3,4′-piperidin]-1-one] | < 20 | 600 to 1000 | < 20
COc1ccc(F)c2c1N(CC(C)(C)O)CC21CCN(c2nc3c(c(=O)[nH]2)CCCN3)CC1 [Example 473, 2-(4-fluoro-1-(2-hydroxy-2-methylpropyl)-7-methoxyspiro[indoline-3,4′-piperidin]-1′-yl)-5,6,7,8-tetrahydropyeido[2,3-d]pyrimidin-4(3H)-one] | < 20 | 600 to 1000 | 20 to 200
COc1ccc(F)c2c1NCC21CCN(c2nc3c(c(=O)[nH]2)CCCN3)CC1 [Example 474, 2-(4-fluoro-7-methoxyspiro[indoline-3,4′-piperidin]-1′-yl)-5,6,7,8-tetrahydropyrido[2,3-d]pyrimidin-4(3H)-one] | < 20 | 100 to 600 | < 20
